Assay results as given in US10544106B2, “Certain chemical entities, compositions, and methods” (NeuPharma, Inc., priority 2016, dated 2020).

Molecular target: BTK (Homo sapiens (Human), UniProt Q06187)
Experiment: Z'-LYTE kinase inhibition assay against BTK
Type: biochemical
Conditions: for inhibition at 0.1 µM: compound at 100 nM, ATP concentration at Km; for IC50: series of concentrations, GraphPad Prism 5
Method in brief: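 Compounds were titrated over 10 points (3-fold steps, 1% DMSO) against BTK (1.04-10.4 ng) using Tyr 01 substrate at 2 μM and ATP at Km, pH 7.5 HEPES buffer with MgCl2 and EGTA. After one hour each of reaction and development at room temperature, fluorescence gave percent inhibition and IC50.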

BTK, sequence (Q06187 whole entry): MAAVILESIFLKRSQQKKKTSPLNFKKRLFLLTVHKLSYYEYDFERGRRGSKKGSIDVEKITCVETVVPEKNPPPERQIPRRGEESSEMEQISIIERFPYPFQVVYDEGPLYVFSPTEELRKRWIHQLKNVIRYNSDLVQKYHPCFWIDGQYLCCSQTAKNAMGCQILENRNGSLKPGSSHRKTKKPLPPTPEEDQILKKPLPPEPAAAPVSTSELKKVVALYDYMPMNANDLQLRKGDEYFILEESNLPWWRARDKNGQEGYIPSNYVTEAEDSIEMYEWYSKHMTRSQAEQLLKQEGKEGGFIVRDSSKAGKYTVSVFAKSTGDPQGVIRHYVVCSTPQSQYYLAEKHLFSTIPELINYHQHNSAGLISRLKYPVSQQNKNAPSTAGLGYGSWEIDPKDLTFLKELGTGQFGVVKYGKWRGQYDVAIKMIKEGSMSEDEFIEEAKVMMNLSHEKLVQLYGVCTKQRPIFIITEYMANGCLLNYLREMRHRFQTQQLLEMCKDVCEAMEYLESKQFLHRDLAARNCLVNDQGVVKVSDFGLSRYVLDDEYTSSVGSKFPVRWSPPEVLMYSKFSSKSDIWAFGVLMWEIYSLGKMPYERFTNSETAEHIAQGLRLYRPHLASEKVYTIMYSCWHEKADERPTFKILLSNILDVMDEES

Row | SMILES | inhibition at 0.1 µM [%] | IC50 [nM]
1 | C=CC(=O)Nc1cccc(-c2cc(-c3ccc(C(=O)Nc4ccccn4)c(OC)c3)cc3cncnc23)c1 [C141, 4-(8-(3-acrylamidophenyl)quinazolin-6-yl)-2-methoxy-N-(pyridin-2-yl)benzamide] | < 50 | 
2 | C=CC(=O)N1CCC(c2cc(-c3ccc(C(=O)Nc4ccc(C(F)(F)F)cn4)cc3)cc3cncnc23)C1 (centres unmarked) [C142, 4-(8-(1-acryloylpyrrolidin-3-yl)quinazolin-6-yl)-N-(5-(trifluoromethyl)pyridin-2-yl)benzamide] | < 50 | 
3 | C=CC(=O)N1CCC(c2cc(-c3ccc(Oc4cc(C(F)(F)F)ccn4)cc3)n3cnccc23)C1 (centres unmarked) [C143, 1-(3-(7-(4-((4-(trifluoromethyl)pyridin-2-yl)oxy)phenyl)pyrrolo[1,2-c]pyrimidin-5-yl)pyrrolidin-1-yl)prop-2-en-1-one] | < 50 | 
4 | C=CC(=O)N1CCC(c2cc(-c3ccc(Oc4ccccn4)cc3F)cc3cnc(N)nc23)C1 (centres unmarked) [C144, 1-(3-(2-amino-6-(2-fluoro-4-(pyridin-2-yloxy)phenyl)quinazolin-8-yl)pyrrolidin-1-yl)prop-2-en-1-one] | < 50 | 
5 | C=CC(=O)Nc1cccc(-c2cc(-c3ccc(C(=O)Nc4cc(C(F)(F)F)ccn4)c(OC)c3)cc3cncnc23)c1 [C145, 4-(8-(3-acrylamidophenyl)quinazolin-6-yl)-2-methoxy-N-(4-(trifluoromethyl)pyridin-2-yl)benzamide] | < 50 | 
6 | C=CC(=O)N1CCC(c2cc(-c3ccc(Oc4ccccn4)c(OC)c3)cc3cncnc23)C1 (centres unmarked) [C146, 1-(3-(6-(3-methoxy-4-(pyridin-2-yloxy)phenyl)quinazolin-8-yl)pyrrolidin-1-yl)prop-2-en-1-one] | < 50 | 
7 | C=CC(=O)N1CCC(c2cc(-c3ccc(C(=O)Nc4ccnnc4)cc3)cc3cncnc23)C1 (centres unmarked) [C147, 4-(8-(1-acryloylpyrrolidin-3-yl)quinazolin-6-yl)-N-(pyridazin-4-yl)benzamide] | < 50 | 
8 | C=CC(=O)N1CCC(c2cc(-c3ccc(C(=O)Nc4cc(OC)ccn4)c(F)c3)n3cnccc23)C1 (centres unmarked) [C148, 4-(5-(1-acryloylpyrrolidin-3-yl)pyrrolo[1,2-c]pyrimidin-7-yl)-2-fluoro-N-(4-methoxypyridin-2-yl)benzamide] | < 50 | 
9 | C=CC(=O)N1CCC(c2cc(-c3ccc(C(=O)Nc4cc(C5CC5)ccn4)cc3F)n3cnccc23)C1 (centres unmarked) [C149, 4-(5-(1-acryloylpyrrolidin-3-yl)pyrrolo[1,2-c]pyrimidin-7-yl)-N-(4-cyclopropylpyridin-2-yl)-3-fluorobenzamide] | < 50 | 
10 | C=CC(=O)N1CCC(c2cc(-c3ccc(C(=O)Nc4cc(OC)ccn4)cc3F)n3cnccc23)C1 (centres unmarked) [C150, 4-(5-(1-acryloylpyrrolidin-3-yl)pyrrolo[1,2-c]pyrimidin-7-yl)-3-fluoro-N-(4-methoxypyridin-2-yl)benzamide] | < 50 | 
11 | C=CC(=O)N1CCC(c2cc(-c3ccc(C(=O)Nc4cc(C#N)ccn4)cc3F)n3cnccc23)C1 (centres unmarked) [C151, 4-(5-(1-acryloylpyrrolidin-3-yl)pyrrolo[1,2-c]pyrimidin-7-yl)-N-(4-cyanopyridin-2-yl)-3-fluorobenzamide] | < 50 | 
12 | C=CC(=O)N1CCC(c2cc(-c3ccc(C(=O)Nc4cc(C(F)(F)F)ccn4)c(F)c3)n3cnccc23)C1 (centres unmarked) [C152, 4-(5-(1-acryloylpyrrolidin-3-yl)pyrrolo[1,2-c]pyrimidin-7-yl)-2-fluoro-N-(4-(trifluoro-methyl)pyridin-2-yl)benzamide] | < 50 | 
13 | C=CC(=O)Nc1cccc(-c2cc(-c3ccc(C(=O)Nc4cc(C5CC5)ccn4)cc3F)cc3cncnc23)c1 [C153, 4-(8-(3-acrylamidophenyl)quinazolin-6-yl)-N-(4-cyclopropylpyridin-2-yl)-3-fluorobenzamide] | > 50 | < 100
14 | C=CC(=O)Nc1cccc(-c2cc(-c3ccc(C(=O)Nc4cc(C#N)ccn4)cc3F)cc3cncnc23)c1 [C154, 4-(8-(3-acrylamidophenyl)quinazolin-6-yl)-N-(4-cyanopyridin-2-yl)-3-fluorobenzamide] | > 50 | 
15 | C=CC(=O)N1CCC(c2cc(-c3ccc(C(=O)Nc4ccncc4)cc3)cc3cncnc23)C1 (centres unmarked) [C155, 4-(8-(1-acryloylpyrrolidin-3-yl)quinazolin-6-yl)-N-(pyridin-4-yl)benzamide] | < 50 | 
16 | C=CC(=O)Nc1cccc(-c2cc(-c3ccc(C(=O)Nc4cc(C#N)ccn4)c(OC)c3)cc3cncnc23)c1 [C156, 4-(8-(3-acrylamidophenyl)quinazolin-6-yl)-N-(4-cyanopyridin-2-yl)-2-methoxybenzamide] | < 50 | 
17 | C=CC(=O)Nc1cccc(-c2cc(-c3ccc(Oc4ccccn4)cc3F)cc3cnc(N)nc23)c1 [C157, N-(3-(2-amino-6-(2-fluoro-4-(pyridin-2-yloxy)phenyl)quinazolin-8-yl)phenyl)acrylamide] | > 50 | < 100
18 | C=CC(=O)Nc1cccc(-c2cc(-c3ccc(Oc4ccccn4)c(F)c3)cc3cnc(N)nc23)c1 [C158, N-(3-(2-amino-6-(3-fluoro-4-(pyridin-2-yloxy)phenyl)quinazolin-8-yl)phenyl)acrylamide] | > 50 | < 100
19 | C=CC(=O)N1CCC(c2cc(-c3ccc(Oc4ccccn4)cc3F)n3cnccc23)C1 (centres unmarked) [C159, 1-(3-(7-(2-fluoro-4-(pyridin-2-yloxy)phenyl)pyrrolo[1,2-c]pyrimidin-5-yl)pyrrolidin-1-yl)prop-2-en-1-one] | < 50 | 
20 | C=CC(=O)N1CCC(c2cc(-c3ccc(Oc4ccccn4)c(F)c3)cc3cncnc23)C1 (centres unmarked) [C160, 1-(3-(6-(3-fluoro-4-(pyridin-2-yloxy)phenyl)quinazolin-8-yl)pyrrolidin-1-yl)prop-2-en-1-one] | > 50 | 
21 | C=CC(=O)N1CCC(c2cc(-c3ccc(C(=O)Nc4cc(C#N)ccn4)cc3)n3cnccc23)C1 (centres unmarked) [C161, 4-(5-(1-acryloylpyrrolidin-3-yl)pyrrolo[1,2-c]pyrimidin-7-yl)-N-(4-cyanopyridin-2-yl)benzamide] | > 50 | < 100
22 | C=CC(=O)N1CCC(c2cc(-c3ccc(C(=O)Nc4cc(OC)ccn4)cc3)n3cnccc23)C1 (centres unmarked) [C162, 4-(5-(1-acryloylpyrrolidin-3-yl)pyrrolo[1,2-c]pyrimidin-7-yl)-N-(4-methoxypyridin-2-yl)benzamide] | < 50 | 

Further lines, results first:

Row | inhibition at 0.1 µM [%] | IC50 [nM] | SMILES
23 | > 50 |  | C=CC(=O)N1CCC(c2cc(-c3ccc(C(=O)Nc4cc(C5CC5)ccn4)cc3)n3cnccc23)C1 (centres unmarked) [C164, 4-(5-(1-acryloylpyrrolidin-3-yl)pyrrolo[1,2-c]pyrimidin-7-yl)-N-(4-cyclopropylpyridin-2-yl)benzamide]
24 | < 50 |  | C=CC(=O)N1CCC(c2cc(-c3ccc(C(=O)Nc4cc(C5CC5)ccn4)c(F)c3)n3cnccc23)C1 (centres unmarked) [C165, 4-(5-(1-acryloylpyrrolidin-3-yl)pyrrolo[1,2-c]pyrimidin-7-yl)-N-(4-cyclopropylpyridin-2-yl)-2-fluorobenzamide]
25 | > 50 | < 100 | C=CC(=O)Nc1cccc(-c2cc(-c3ccc(Oc4ccccn4)cc3OC)cc3cnc(N)nc23)c1 [C166, N-(3-(2-amino-6-(2-methoxy-4-(pyridin-2-yloxy)phenyl)quinazolin-8-yl)phenyl)acrylamide]
26 | < 50 |  | C=CC(=O)N1CCC(c2cc(-c3ccc(Oc4ccccn4)c(OC)c3)n3cnccc23)C1 (centres unmarked) [C167, 1-(3-(7-(3-methoxy-4-(pyridin-2-yloxy)phenyl)pyrrolo[1,2-c]pyrimidin-5-yl)pyrrolidin-1-yl)prop-2-en-1-one]
27 | < 50 |  | C=CC(=O)N1CCC(c2cc(-c3ccc(Oc4ccccn4)cc3OC)cc3cnc(N)nc23)C1 (centres unmarked) [C168, 1-(3-(2-amino-6-(2-methoxy-4-(pyridin-2-yloxy)phenyl)quinazolin-8-yl)pyrrolidin-1-yl)prop-2-en-1-one]
28 | < 50 |  | C=CC(=O)N1CCC(c2cc(-c3ccc(Oc4ccccn4)cc3OC)n3cnccc23)C1 (centres unmarked) [C169, 1-(3-(7-(2-methoxy-4-(pyridin-2-yloxy)phenyl)pyrrolo[1,2-c]pyrimidin-5-yl)pyrrolidin-1-yl)prop-2-en-1-one]
29 | < 50 |  | C=CC(=O)Nc1cccc(-c2cc(-c3ccc(C(=O)Nc4ccccn4)cc3)c(N)c3cncnc23)c1 [C170, 4-(8-(3-acrylamidophenyl)-5-aminoquinazolin-6-yl)-N-(pyridin-2-yl)benzamide]
30 | > 50 | < 100 | C=CC(=O)Nc1cccc(-c2cc(-c3ccc(C(=O)Nc4cc(C5CC5)ccn4)cc3)c(N)c3cncnc23)c1 [C171, 4-(8-(3-acrylamidophenyl)-5-aminoquinazolin-6-yl)-N-(4-cyclopropylpyridin-2-yl)benzamide]
31 | < 50 |  | C=CC(=O)N1CCC(c2cc(-c3ccc(C(=O)Nc4cc(C#N)ccn4)c(F)c3)n3cnccc23)C1 (centres unmarked) [C172, 4-(5-(1-acryloylpyrrolidin-3-yl)pyrrolo[1,2-c]pyrimidin-7-yl)-N-(4-cyanopyridin-2-yl)-2-fluorobenzamide]
32 | < 50 |  | C=CC(=O)Nc1cccc(-c2cc(-c3ccc(Oc4ccccn4)cc3F)c(N)c3cncnc23)c1 [C173, N-(3-(5-amino-6-(2-fluoro-4-(pyridin-2-yloxy)phenyl)quinazolin-8-yl)phenyl)acrylamide]
33 | < 50 |  | C=CC(=O)N1CCC(c2cc(-c3ccc(Oc4ccccn4)cc3F)c(N)c3cncnc23)C1 (centres unmarked) [C174, 1-(3-(5-amino-6-(2-fluoro-4-(pyridin-2-yloxy)phenyl)quinazolin-8-yl)pyrrolidin-1-yl)prop-2-en-1-one]
34 | > 50 | < 100 | C=CC(=O)Nc1cccc(-c2cc(-c3ccc(Oc4cc(C(F)(F)F)ccn4)cc3)cc3cncnc23)c1 [C175, N-(3-(6-(4-((4-(trifluoromethyl)pyridin-2-yl)oxy)phenyl)quinazolin-8-yl)phenyl)acrylamide]
